US8324268B2, “Substituted furancarboxamides, and use thereof” (AiCuris GmbH & Co. KG, priority 2008, dated 2012)

How the values were obtained:
HIV-1LAI = experiment: H9 assay with wild-type HIV-1 (HIV-1LAI supernatant infection, AlamarBlue); type: cell-based; conditions: Human immunodeficiency virus 1, H9 cells, 10% FCS
Protocol: For the mixture for a 96-well MTP, 3 million PBLs are pelleted, suspended in 1 ml of RPMI 1640 medium/10% FCS and incubated together with a suitable amount of HIV-1LAI (NIH AIDS Research & Reference Reagent Program, Germantown, USA) at 37° C. for 2 hours (pellet infection). Unadsorbed viruses are subsequently washed out with PBS, and the infected cells are pelleted again and suspended in 18 ml of RPMI 1640 medium/10% FCS/interleukin-2 (40 U/ml). 180 μl thereof are pipetted into each well of a white 96-well MTP with 20 μl of test substance in suitable dilution. Alternatively, after preparation of the substance dilutions in the MTP, the HIV is pipetted in together with the cells and is not washed out again (supernatant infection). In order to avoid edge effects, the wells at the edge of the MTP are not used for substance dilutions. The second vertical row of the MTP contains only infected cells (virus control) and the eleventh vertical row only uninfected cells (cell control), in each case in RPMI 1640 medium/10% FCS/interleukin-2 (40 U/ml). The other wells of the MTP contain the compounds of the invention in various concentrations starting from the third vertical row, from which the test substances are diluted in 3-fold steps up to the tenth vertical row 3^7-fold. The test substances are dissolved in DMSO, whereby the final DMSO concentration in the test mixture is 1%. The test mixtures are incubated at 37° C./5% CO2. After 5 and 7 days, 50 μl of cell-free supernatant are removed from each well to determine the amount of p24 present by means of a p24 ELISA (HIV-1 p24^CA Antigen Capture Assay Kit, NCI-Frederick Cancer Research and Development Center, Frederick, USA). From the resulting values of the photometric evaluation (450/620 nm) the EC50 values of the test substances are determined as the concentration at which the amount of p24 is 50% of the untreated infected cells.
Alternatively, H9 cells (ATCC, Wesel, Germany) are employed instead of PBLs for testing the test substances. H9 cells are incubated in RPMI 1640 medium with 2% or 10% FCS as a HIV-ILAI supernatant infection at 37° C./5% CO2, (20 μl of substance dilution and 80 μl of cells/virus per well) in accordance with the pattern described above for 5 days. Subsequently, 10 μl of AlamarBlue® (Invitrogen, Karlsruhe, Germany) are added to each well, and the MTPs are incubated at 37° C. for 3 hours before the fluorimetric evaluation takes place (544/590 nm). The resulting values are about 40 000 for the untreated uninfected cells and about 7000 for the untreated infected cells. In the low concentration range, the EC50 values of the test substances are determined as the concentration at which the fluorescence is 50% of the untreated uninfected cells (in each case subtracting the values of the untreated infected cells). In addition, in the high concentration range, the CC50 values of the test substances are determined as the concentration at which the fluorescence is 50% of the untreated uninfected cells (in each case subtracting the values of the untreated infected cells).

reverse transcriptase = biological target: T1, reverse transcriptase (Human immunodeficiency virus type 1 group M subtype B, UniProt P03366); experiment: Biochemical reverse transcriptase assay (Reverse Transcriptase Assay, colorimetric, Roche); conditions: read-out: IC50 (nM) RT assay
T1 construct: negative control (mixture without reverse transcriptase); purchased Roche Diagnostics GmbH, Mannheim, Germany
Protocol: The “Reverse Transcriptase Assay, colorimetric” (Roche Diagnostics GmbH, Mannheim, Germany) is used in accordance with the manufacturer's information. The test substances are dissolved in DMSO and are used in the test diluted in 5-fold steps (final DMSO concentration 1%). The resulting values of the photometric evaluation (405/492 nm) are less than 0.1 for the negative control (mixture without reverse transcriptase) and are in the region of 1.5 for the positive control (mixture without test substance). The IC50 values of the test substances are determined as the concentration of the test substance dilution at which the measured optical density is 50% of the positive control.

HIV-1NL4-3 wt = experiment: Light assay with wild-type HI reporter virus in MT4 7F2 cells; type: cell-based; conditions: Human immunodeficiency virus 1, 2% FCS
Protocol: (§1) For the mixture for a 96-well MTP, 3 million MT4 7F2 cells are pelleted, suspended in 1 ml of RPMI 1640 medium without phenol red (Invitrogen, Karlsruhe, Germany)/10% FCS/10% AIM-V (Invitrogen, Karlsruhe, Germany) and incubated together with a suitable amount of the corresponding HIV-1NL4-3 reporter virus at 37° C. for 2 hours (pellet infection). Unadsorbed viruses are subsequently washed out with PBS, and the infected cells are pelleted again and suspended in 8 ml of RPMI 1640 medium without phenol red/2% or 10% FCS/10% AIM-V. 80 μl thereof are pipetted into each well of a white 96-well MTP with 20 μl of test substance in suitable dilution. To avoid edge effects, the wells on the edge of the MTP are not used for substance dilutions. The second vertical row of the MTP contains only infected cells (virus control) and the eleventh vertical row only uninfected cells (cell control), in each case in RPMI 1640 medium without phenol red/2% or 10% FCS/10% AIM-V. The other wells of the MTP contain the compounds of the invention in various concentrations starting from the third vertical row, from which the test substances are diluted in 3-fold steps up to the tenth vertical row 3^7-fold. The test substances are dissolved in DMSO, whereby the final DMSO concentration in the test mixture is 1%. The test mixtures are incubated at 37° C./5% CO2 for five days and, after the addition of 15 μl of Lu164 substrate (5 mg/ml coelenterazine dissolved in 30 μM glutathione/DMSO, 100 mM NaCl, 1M MES, 100 mM glutathione), evaluated by luminometry. The resulting values are in the region of 1 000 000 RLUs (relative light units) for the virus control and 300 to 400 RLUs for the cell control. The EC50 values of the test substances are determined as the concentration at which the virus replication measured in RLUs is 50% of the untreated infected cells.

HIV-1NL4-3 K103N-Y181C = experiment: Light assay with inhibitor-resistant HI reporter virus in MT4 7F2 cells; type: cell-based; conditions: Human immunodeficiency virus 1, read-out: EC50 (nM) MT4 7F2 cells HIV-1NL4-3 K103N-Y181C 2% FCS
Protocol: as §1

SMILES	EC50 (HIV-1LAI) [nM]	IC50 (reverse transcriptase) [nM]	EC50 (HIV-1NL4-3 wt) [nM]	EC50 (HIV-1NL4-3 K103N-Y181C) [nM]
O=C1CN(C(=O)c2cc(-c3cc(F)cc(Cl)c3)c(-c3ccc(F)c(Cl)c3)o2)CN1 [Example 11, 1-{[5-(3-Chloro-4-fluorophenyl)-4-(3-chloro-5-fluorophenyl)furan-2-yl]-carbonyl}imidazolidin-4-one]	77	370	20	255
N#Cc1cc(-c2oc(C(=O)N3CNC(=O)C3)cc2-c2cc(F)cc(Cl)c2)ccc1F [Example 23, 5-{3-(3-Chloro-5-fluorophenyl)-5-[(4-oxoimidazolidin-1-yl)carbonyl]furan-2-yl}-2-fluorobenzenecarbonitrile]	18		2	100
N#Cc1cc(-c2oc(C(=O)N3CCNC(=O)C3)cc2-c2cccc(Cl)c2)ccc1F [Example 24, 5-{3-(3-Chlorophenol)-5-[(3-oxopiperazin-1-yl)carbonyl]furan-2-yl}-2-fluorobenzenecarbonitrile]	47		4	320
O=C1CN(C(=O)c2cc(-c3cccc(Cl)c3)c(-c3ccc(F)c(Cl)c3)o2)CN1 [Example 25, 1-{[5-(3-Chloro-4-fluorophenyl)-4-(3-chlorophenyl)furan-2-yl]carbonyl}imidazolidin-4-one]	225		18	250
N#Cc1cc(-c2oc(C(=O)N3CNC(=O)C3)cc2-c2cccc(Cl)c2)ccc1F [Example 26, 5-{3-(3-Chlorophenyl)-5-[(4-oxoimidazolidin-1-yl)carbonyl]furan-2-yl}-2-fluorobenzenecarbonitrile]	150		20	250
COc1cccc(-c2oc(C(=O)N3CNC(=O)C3)cc2-c2cccc(Cl)c2)c1 [Example 27, 1-{[4-(3-Chlorophenyl)-5-(3-methoxyphenyl)furan-2-yl]carbonyl}imidazolidin-4-one]	200		14	700
Cc1cc(C)cc(-c2cc(C(=O)N3CCNC(=O)C3)oc2-c2cccc(Cl)c2)c1 [Example 28, 4-{[5-(3-Chlorophenyl)-4-(3,5-dimethylphenyl)furan-2-yl]carbonyl}piperazin-2-one]	200		30	400
COc1cccc(-c2cc(C(=O)N3CCNC(=O)C3)oc2-c2cccc(Cl)c2)c1 [Example 29, 4-{[5-(3-Chlorophenyl)-4-(3-methoxyphenyl)furan-2-yl]carbonyl}piperazin-2-one]	450		53	400
O=C1CN(C(=O)c2cc(-c3cccc(Cl)c3)c(-c3cccc(Cl)c3)o2)CCN1 [Example 30, 4-{[4,5-Bis(3-chlorophenyl)furan-2-yl]carbonyl}piperazin-2-one]	200	750	25	650
N#Cc1cc(F)cc(-c2cc(C(=O)N3CNC(=O)C3)oc2-c2ccc(F)c(Cl)c2)c1 [Example 31, 3-{2-(3-Chloro-4-fluorophenyl)-5-[(4-oxoimidazolidin-1-yl)carbonyl]furan-3-yl}-5-fluorobenzenecarbonitrile]	80		8	80
N#Cc1cc(F)cc(-c2cc(C(=O)N3CNC(=O)C3)oc2-c2cccc(Cl)c2)c1 [Example 32, 3-{2-(3-Chlorophenyl)-5-[(4-oxoimidazolidin-1-yl)carbonyl]furan-3-yl}-5-fluorobenzenecarbonitrile]	70		2	150
N#Cc1cc(F)cc(-c2cc(C(=O)N3CCNC(=O)C3)oc2-c2cccc(Cl)c2)c1 [Example 33, 3-{2-(3-Chlorophenyl)-5-[(3-oxopiperazin-1-yl)carbonyl]furan-3-yl}-5-fluorobenzenecarbonitrile]	25		< 1.5	200
N#Cc1cc(F)cc(-c2cc(C(=O)N3CCOCC3)oc2-c2cccc(C#N)c2)c1 [Example 34, 3-[2-(3-Cyanophenyl)-5-(morpholin-4-ylcarbonyl)furan-3-yl]-5-fluorobenzenecarbonitrile]	30		< 1.5	300
